Literature values, collected in patent US6383817B2, “Cadmium is a risk factor for human pancreatic cancer” (Wake Forest University, priority 1999, dated 2002).
Where two headings read alike, the source gives them in different places.

Legend:
mice = details: injection of 4 mg/kg, relative to saline
Wistar rats = details: injection, vs. 2.2% control
[1] = test system: Louisiana red swamp crayfish (Procambarus clarkii); details: day 14; crayfish fed plants grown for 7 days in 0.00224 ppb cadmium
rats = details: repeated injections to rats
[2] = test system: pancreatic metallothionein; details: rats
[3] = not given; remark: listed apart in the source

| SMILES | increase in the incorporation of [3H] thymidine in the pancreas (mice) [fold] | incidence of pancreatic islet cell tumors (Wistar rats) [%] | Accumulation of cadmium in hepatopancreata [1] | rats with hepatocytic foci in the pancreata (rats) | increase in pancreatic metallothionein ([2]; injection of 4 mg/kg) [fold] | increase in pancreatic metallothionein ([2]; injection of 8 mg/kg) [fold] | SMR (x100), pancreatic cancer deaths (Elinder et al. (1985), male cadmium-nickel battery workers, Oskarshamn, Sweden) | SMR (x100), pancreatic cancer deaths (Järup et al. (1998), battery workers, Kalmar, Sweden, females) | SMR (x100), pancreatic cancer deaths (Järup et al. (1998), battery workers, Kalmar, Sweden, males) | SMR (x100), pancreatic cancer deaths (Sorahan et al. (1995), male copper cadmium alloy workers, England and Wales) | correlation (r) between estimated dietary intake of cadmium and pancreatic cancer mortality ([3]; men) | correlation (r) between estimated dietary intake of cadmium and pancreatic cancer mortality ([3]; women) |
| --- | --- | --- | --- | --- | --- | --- | --- | --- | --- | --- | --- | --- |
| [Cl][Cd][Cl] [cadmium chloride] | 2.5 | 8.5 | – | – | – | – | – | – | – | – | – | – |
| [Cd] [cadmium] | – | – | 4,657.6 ppb | more than 93% | 9.8 | 17.9 | 130 | 220 | 148 | 218 | 0.48 | 0.25 |
